Activity calls are given as the source filed them.
What was measured:
[1] = target: T1, RNA-binding protein pos-1 (Caenorhabditis elegans, UniProt G5EF15); assay: disruptors of C. elegans POS-1 RNA interaction – biochemical, fluorescence polarization, dose response (AID 1964);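 further: purified POS-1 fused to maltose binding protein made in E. coli; potency of compounds blocking POS-1 binding to fluorescent RNA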
T1 sequence (G5EF15 whole entry): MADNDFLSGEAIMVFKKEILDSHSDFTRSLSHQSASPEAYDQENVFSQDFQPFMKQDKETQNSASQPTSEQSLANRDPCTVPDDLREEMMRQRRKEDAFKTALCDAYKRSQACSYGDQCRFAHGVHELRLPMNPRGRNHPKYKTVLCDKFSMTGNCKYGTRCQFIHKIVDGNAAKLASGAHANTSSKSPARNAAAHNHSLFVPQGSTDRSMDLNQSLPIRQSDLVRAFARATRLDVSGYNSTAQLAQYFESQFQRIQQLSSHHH

[2] = target: T2, Zinc finger protein mex-5 (Caenorhabditis elegans, UniProt Q9XUB2); assay: potency of MEX-5 RNA-binding blockers – biochemical, C. elegans, fluorescence polarization, dose response (AID 1960)
T2 sequence (Q9XUB2 whole entry): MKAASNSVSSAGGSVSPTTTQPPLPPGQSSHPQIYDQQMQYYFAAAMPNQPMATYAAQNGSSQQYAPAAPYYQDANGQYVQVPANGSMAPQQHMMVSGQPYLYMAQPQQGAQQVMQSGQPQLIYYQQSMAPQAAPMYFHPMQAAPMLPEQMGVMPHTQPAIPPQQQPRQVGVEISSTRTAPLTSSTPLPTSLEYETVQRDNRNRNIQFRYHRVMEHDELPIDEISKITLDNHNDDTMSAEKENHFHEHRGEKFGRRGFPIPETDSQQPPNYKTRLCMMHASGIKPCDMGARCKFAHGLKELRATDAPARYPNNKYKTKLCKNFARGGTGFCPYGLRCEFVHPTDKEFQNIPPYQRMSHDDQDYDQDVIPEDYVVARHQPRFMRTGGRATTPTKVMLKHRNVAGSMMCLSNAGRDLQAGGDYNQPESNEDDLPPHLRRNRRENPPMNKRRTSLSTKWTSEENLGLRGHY

[3] = target: Beta-lactamase (Pseudomonas aeruginosa, UniProt Q79MP6);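 further: biochemical dose-response test of metallo-beta-lactamase enzyme inhibition, read out by epi-absorbance; purified recombinant IMP-1 metallo-beta-lactamase with nitrocefin as substrate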
[4] = target: Beta-lactamase (Salmonella choleraesuis (strain SC-B67), UniProt Q5J463)
[5] = tested on: CHO; assay: CHO cell viability loss, potency – luminescence, cytotoxicity control for TLR9-MyD88 binding inhibitor project, dose response (AID 588339); assay type: functional, cell-based, hamster; conditions: Cricetulus griseus;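 further: CHO cells stably coexpressing TLR9 and MyD88 fusions from primary screen; compound exposure lasted 48 hours before viability readout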
[6] = target: Beta Lactamase (Pseudomonas aeruginosa, UniProt Q932Y6); assay: BLA reporter interference, concentration series – BLA reporter cells, FRET fluorescence, artefact control for TLR9-MyD88 binding inhibitor project, dose response (AID 588341); assay type: cell-based;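 further: cell based assay in CHO-K1 cells stably expressing beta-lactamase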
[7] = target: T3, High affinity choline transporter 1 (Homo sapiens, UniProt Q9GZV3); assay: human choline transporter potentiators, potency – cell-based, 10-point CRC, membrane potential dye, dose response (AID 602376); assay type: functional
T3 sequence (Q9GZV3 whole entry): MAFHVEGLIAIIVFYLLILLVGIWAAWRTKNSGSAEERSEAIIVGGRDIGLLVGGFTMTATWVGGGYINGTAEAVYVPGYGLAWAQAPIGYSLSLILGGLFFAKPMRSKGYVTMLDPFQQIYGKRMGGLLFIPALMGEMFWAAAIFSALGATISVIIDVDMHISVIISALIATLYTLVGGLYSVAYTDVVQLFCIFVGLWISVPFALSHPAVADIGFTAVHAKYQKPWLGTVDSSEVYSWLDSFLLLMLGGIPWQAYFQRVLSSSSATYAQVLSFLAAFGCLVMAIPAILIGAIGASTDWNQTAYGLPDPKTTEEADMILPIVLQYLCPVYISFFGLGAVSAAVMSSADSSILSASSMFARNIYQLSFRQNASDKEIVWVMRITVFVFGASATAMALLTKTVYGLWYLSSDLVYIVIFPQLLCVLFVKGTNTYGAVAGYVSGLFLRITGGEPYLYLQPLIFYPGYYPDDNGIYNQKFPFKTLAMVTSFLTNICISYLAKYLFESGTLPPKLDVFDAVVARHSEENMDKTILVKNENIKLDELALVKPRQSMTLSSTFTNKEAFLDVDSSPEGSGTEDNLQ

[8] = target: Glycogen synthase kinase-3 alpha (Homo sapiens, UniProt P49840); assay: Inhibition of Human GSK-3 alpha Activity Measured in Biochemical System Using Microfluidics - 2063-06_Inhibitor_Dose_DryPowder_Activity_Set2. [Related pubchem assays (depositor defined):AID2709]
[9] = target: Glycogen synthase kinase-3 beta (Homo sapiens, UniProt P49841); assay: Inhibition of Human GSK-3 beta Activity Measured in Biochemical System Using Microfluidics - 2063-05_Inhibitor_Dose_DryPowder_Activity_Set2. [Related pubchem assays (depositor defined):AID2709]
[10] = target: Cyclin-dependent kinase 5/CDK5 activator 1 (Homo sapiens, UniProt Q00535); assay: human CDK5 activity blockade – biochemical, microfluidic mobility shift, dry powder, selectivity assay for GSK-3 alpha inhibitor project, dose response (AID 588430)
[11] = target: T4, Sentrin-specific protease 8 (Homo sapiens, UniProt Q96LD8); assay: inhibition of human SENP8 cleavage activity – biochemical, luminescence, SAR follow-up (AID 504501); assay type: functional
T4 sequence (Q96LD8 whole entry): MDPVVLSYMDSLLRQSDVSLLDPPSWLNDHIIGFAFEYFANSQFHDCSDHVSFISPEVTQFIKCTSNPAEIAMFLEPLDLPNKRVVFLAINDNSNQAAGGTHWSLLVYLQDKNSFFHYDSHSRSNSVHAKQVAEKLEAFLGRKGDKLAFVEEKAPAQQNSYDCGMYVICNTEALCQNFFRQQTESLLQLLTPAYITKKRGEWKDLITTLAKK

[12] = target: T5, Caspase-3 (Homo sapiens, UniProt P42574); assay: inhibition of recombinant caspase-3 activity – biochemical, luminescence, set 2, selectivity assay for SENP protease inhibitor project, SAR follow-up (AID 588599); assay type: functional
T5 sequence (P42574 whole entry): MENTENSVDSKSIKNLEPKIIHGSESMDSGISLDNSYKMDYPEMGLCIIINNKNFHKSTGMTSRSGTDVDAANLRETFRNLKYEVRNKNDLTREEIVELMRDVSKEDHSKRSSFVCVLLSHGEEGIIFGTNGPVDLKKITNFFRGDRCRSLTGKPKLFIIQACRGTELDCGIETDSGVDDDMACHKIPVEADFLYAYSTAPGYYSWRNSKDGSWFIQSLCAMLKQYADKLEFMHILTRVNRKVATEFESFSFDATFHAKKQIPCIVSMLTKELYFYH

[13] = target: T4, Sentrin-specific protease 8; assay: inhibition of sentrin protease 8 – biochemical, luminescence, set 2, SAR follow-up (AID 588601); assay type: functional
[14] = target: T5, Caspase-3; assay: SAR Analysis of small molecule inhibitors of Sentrin-specific proteases (SENPs) using a Caspase-3 Selectivity assay. [Related pubchem assays (depositor defined):AID2540, AID2599, AID434973, AID489001]; assay type: functional
[15] = target: T6, Sentrin-specific protease 7 (Homo sapiens, UniProt Q9BQF6); assay: inhibition of human SENP7 cleavage activity – biochemical, luminescence, set 2, SAR follow-up (AID 588600); assay type: functional
T6 sequence (Q9BQF6 whole entry): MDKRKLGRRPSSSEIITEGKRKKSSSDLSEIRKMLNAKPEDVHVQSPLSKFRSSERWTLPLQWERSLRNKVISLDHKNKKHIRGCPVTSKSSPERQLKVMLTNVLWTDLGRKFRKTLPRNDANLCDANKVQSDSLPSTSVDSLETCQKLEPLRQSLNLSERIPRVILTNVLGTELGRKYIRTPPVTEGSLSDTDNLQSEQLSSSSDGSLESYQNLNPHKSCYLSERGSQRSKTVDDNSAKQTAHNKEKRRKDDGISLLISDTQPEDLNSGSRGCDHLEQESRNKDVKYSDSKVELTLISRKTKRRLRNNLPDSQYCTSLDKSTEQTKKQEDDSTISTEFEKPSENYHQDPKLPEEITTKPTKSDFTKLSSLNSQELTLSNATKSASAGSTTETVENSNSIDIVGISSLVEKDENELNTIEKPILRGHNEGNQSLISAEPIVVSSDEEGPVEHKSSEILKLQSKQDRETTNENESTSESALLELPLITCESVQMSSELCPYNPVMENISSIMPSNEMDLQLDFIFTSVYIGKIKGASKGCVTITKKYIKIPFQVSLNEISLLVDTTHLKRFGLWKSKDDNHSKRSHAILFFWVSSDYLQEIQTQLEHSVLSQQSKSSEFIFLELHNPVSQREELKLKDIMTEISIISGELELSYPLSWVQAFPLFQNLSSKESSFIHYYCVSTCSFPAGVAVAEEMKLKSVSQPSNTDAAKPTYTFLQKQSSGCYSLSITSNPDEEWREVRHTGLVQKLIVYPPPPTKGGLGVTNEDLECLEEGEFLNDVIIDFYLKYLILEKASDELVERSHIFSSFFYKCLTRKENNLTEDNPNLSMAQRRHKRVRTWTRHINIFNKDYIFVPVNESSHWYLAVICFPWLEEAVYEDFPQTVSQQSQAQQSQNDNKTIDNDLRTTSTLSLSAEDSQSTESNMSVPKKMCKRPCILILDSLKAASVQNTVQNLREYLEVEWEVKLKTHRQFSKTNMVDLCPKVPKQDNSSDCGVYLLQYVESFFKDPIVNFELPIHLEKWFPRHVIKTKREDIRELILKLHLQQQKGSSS

[16] = target: T7, Sentrin-specific protease 6 (Homo sapiens, UniProt Q9GZR1); assay: SAR Analysis of small molecule inhibitors of Sentrin-specific protease 6 (SENP6) using a Luminescent assay. [Related pubchem assays (depositor defined):AID2582, AID2599]; assay type: functional
T7 sequence (Q9GZR1 whole entry): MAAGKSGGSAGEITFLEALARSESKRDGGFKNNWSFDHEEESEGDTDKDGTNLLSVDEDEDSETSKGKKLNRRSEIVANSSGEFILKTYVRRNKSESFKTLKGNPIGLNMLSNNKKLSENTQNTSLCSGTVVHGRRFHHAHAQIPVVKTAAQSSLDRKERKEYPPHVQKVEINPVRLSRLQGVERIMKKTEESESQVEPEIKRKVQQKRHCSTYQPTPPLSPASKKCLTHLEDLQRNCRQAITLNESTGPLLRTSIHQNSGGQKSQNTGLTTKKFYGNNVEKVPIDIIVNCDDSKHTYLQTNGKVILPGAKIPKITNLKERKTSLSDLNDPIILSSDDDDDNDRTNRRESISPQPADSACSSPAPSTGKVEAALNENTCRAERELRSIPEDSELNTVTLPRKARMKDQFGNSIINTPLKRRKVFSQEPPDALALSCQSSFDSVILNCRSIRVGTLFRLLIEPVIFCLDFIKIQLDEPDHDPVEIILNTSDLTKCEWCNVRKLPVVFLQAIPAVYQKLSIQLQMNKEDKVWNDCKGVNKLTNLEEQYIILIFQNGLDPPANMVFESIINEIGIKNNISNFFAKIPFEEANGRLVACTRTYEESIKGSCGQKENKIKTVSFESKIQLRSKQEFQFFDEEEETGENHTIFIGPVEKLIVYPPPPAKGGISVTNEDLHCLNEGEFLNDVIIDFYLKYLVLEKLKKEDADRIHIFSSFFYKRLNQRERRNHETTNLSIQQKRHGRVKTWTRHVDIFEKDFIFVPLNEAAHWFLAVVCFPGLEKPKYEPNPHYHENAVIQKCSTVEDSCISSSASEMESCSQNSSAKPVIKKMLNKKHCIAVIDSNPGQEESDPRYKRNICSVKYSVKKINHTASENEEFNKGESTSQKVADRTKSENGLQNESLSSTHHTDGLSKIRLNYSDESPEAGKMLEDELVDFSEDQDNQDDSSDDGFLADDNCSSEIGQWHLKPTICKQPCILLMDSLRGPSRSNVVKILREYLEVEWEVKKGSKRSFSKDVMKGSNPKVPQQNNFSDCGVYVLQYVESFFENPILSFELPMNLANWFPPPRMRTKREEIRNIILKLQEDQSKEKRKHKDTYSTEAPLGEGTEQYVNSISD

[17] = target: T7, Sentrin-specific protease 6; assay: inhibition of human SENP6 catalytic domain – biochemical, luminescence, set 2, SAR follow-up (AID 588598); assay type: functional
[18] = target: T6, Sentrin-specific protease 7; assay: inhibition of human SENP7 cleavage activity – biochemical, luminescence, SAR follow-up (AID 504497); assay type: functional

Glycogen synthase kinase-3 beta, sequence (P49841 whole entry): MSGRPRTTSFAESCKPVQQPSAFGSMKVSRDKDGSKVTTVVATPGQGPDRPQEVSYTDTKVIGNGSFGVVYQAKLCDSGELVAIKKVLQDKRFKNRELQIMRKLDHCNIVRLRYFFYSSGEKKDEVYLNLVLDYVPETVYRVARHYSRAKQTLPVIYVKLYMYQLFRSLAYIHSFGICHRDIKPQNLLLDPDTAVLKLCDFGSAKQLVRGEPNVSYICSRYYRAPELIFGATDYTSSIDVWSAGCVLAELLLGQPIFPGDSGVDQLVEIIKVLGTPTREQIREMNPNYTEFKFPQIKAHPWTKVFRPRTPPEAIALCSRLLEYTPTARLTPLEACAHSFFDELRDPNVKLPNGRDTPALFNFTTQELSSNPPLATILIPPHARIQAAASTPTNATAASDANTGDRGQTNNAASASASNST
Beta-lactamase (Pseudomonas aeruginosa, UniProt Q79MP6), sequence (Q79MP6 whole entry): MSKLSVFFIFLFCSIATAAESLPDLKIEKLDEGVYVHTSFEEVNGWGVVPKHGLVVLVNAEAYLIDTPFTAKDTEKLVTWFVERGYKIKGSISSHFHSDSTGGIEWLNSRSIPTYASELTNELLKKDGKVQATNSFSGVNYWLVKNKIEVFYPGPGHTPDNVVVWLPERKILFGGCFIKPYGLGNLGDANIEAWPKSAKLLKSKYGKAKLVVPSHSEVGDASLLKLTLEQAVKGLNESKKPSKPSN
Cyclin-dependent kinase 5/CDK5 activator 1, sequence (Q00535 whole entry): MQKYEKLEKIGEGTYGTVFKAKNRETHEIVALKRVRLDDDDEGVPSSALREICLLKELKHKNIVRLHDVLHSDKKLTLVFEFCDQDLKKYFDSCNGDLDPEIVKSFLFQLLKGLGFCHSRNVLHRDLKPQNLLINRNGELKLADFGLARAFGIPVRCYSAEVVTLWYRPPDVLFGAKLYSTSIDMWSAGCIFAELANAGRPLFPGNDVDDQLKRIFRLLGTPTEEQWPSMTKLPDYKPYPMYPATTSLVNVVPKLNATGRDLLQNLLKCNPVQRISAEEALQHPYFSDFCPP
Cyclin-dependent kinase 5/CDK5 activator 1, sequence (Q15078 whole entry, further chain): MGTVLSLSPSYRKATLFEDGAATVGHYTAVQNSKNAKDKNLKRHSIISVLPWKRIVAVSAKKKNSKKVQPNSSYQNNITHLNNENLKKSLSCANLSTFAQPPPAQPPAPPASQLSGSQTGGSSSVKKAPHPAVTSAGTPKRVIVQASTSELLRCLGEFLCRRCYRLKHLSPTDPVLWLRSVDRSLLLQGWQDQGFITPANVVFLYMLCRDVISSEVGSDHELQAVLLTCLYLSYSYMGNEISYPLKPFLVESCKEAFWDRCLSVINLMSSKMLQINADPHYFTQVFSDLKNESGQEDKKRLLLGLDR
Glycogen synthase kinase-3 alpha, sequence (P49840 whole entry): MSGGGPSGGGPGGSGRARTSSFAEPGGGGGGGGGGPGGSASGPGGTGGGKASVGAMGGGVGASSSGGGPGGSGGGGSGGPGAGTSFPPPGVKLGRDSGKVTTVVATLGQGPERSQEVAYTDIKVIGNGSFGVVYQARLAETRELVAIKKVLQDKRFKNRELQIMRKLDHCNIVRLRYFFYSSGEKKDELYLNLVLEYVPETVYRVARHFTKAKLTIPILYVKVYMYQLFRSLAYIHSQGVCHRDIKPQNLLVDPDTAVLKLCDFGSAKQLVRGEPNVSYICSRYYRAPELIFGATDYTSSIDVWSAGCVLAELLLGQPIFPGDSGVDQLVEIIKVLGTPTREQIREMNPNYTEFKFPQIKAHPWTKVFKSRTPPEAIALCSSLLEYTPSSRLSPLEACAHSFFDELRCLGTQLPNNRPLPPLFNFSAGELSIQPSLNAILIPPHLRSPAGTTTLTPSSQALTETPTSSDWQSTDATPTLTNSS
Beta-lactamase (Salmonella choleraesuis (strain SC-B67), UniProt Q5J463), sequence (Q5J463 whole entry, the tested form may be a part): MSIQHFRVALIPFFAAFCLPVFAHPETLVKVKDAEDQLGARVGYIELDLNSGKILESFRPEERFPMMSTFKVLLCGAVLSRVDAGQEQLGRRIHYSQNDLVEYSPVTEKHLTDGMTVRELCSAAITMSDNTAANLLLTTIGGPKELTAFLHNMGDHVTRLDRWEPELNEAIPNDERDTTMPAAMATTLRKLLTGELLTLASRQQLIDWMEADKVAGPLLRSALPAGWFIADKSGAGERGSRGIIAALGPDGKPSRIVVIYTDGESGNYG
Beta Lactamase, sequence (Q932Y6 whole entry): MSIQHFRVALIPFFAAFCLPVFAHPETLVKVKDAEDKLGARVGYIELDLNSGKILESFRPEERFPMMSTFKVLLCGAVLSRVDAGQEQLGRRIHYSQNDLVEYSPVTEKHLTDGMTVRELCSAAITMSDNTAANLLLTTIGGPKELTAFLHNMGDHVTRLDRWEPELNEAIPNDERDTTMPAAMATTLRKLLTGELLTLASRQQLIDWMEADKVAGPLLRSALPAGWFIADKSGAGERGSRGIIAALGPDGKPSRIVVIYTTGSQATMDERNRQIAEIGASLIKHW

CCN(CC)c1ccc(/C=C/C(=O)c2ccc(Br)cc2)cc1
EC50 [1]: 13.8 µM (inconclusive)
EC50 [2]: 13.5 µM (inconclusive)
IC50 [3]: 11 µM (inactive)
IC50 [4]: 3.09 µM (active)
IC50 [5]: > 49.7 µM (inactive)
IC50 [6]: 3.82 µM (active)

CN(Cc1ccc(F)cc1)C(=O)c1sccc1-c1ccccc1
EC50 [7]: 18.2 µM (active)

O=C(CN1C(=O)CCC1=O)Nc1cccc2c1C(=O)NC2=O
AC50 [8]: 0.459 µM (active)
AC50 [9]: 0.261 µM (active)
AC50 [10]: 20.2 µM (active)

CCCCc1ccc2nc(NC(=O)c3ccco3)sc2c1
IC50 [11]: 2 µM (active)
IC50 [12]: 3.36 µM (active)
IC50 [13]: 2.95 µM (active)
IC50 [14]: 4 µM (active)
IC50 [15]: 3.3 µM (active)
IC50 [16]: 1.8 µM (active)
IC50 [17]: 2.89 µM (active)
IC50 [18]: 1.6 µM (active)

From ChEMBL document CHEMBL1201862, “PubChem BioAssay data set” (2004)
